Measured values taken from patent US8445448B2, “FVIII peptides and their use in tolerising haemophiliacs” (Apitope International NV, priority 2007, dated 2013).

What was measured:
[1] = test system: fixed Mgar cells / FVIII-/- T cell hybridoma clones; assay: Presentation by fresh or fixed Mgar cells to hybridoma clones (antigen processing-independent presentation, IL-2 ELISA); assay type: cell-based; conditions: 20 μg/ml, overnight, Mgar cells fresh or fixed with 1% paraformaldehyde, IL-2 by ELISA; FIG. 5
Experimental: In order to be an antigen processing-independent epitope, a peptide must be capable of binding to an MHC class I or II molecule without further antigen processing (i.e. trimming) and be presented to a T cell. In the present case, the capacity of peptides to be presented by fixed APC was investigated.
Mgar cells were either fresh or fixed with 1% paraformaldehyde. Clones were tested for antigenic specificity by culturing 100 μl of hybridoma cells with 5×10^4 Mgar cells in the presence and absence of 20 μg/ml rhFVIII or peptide epitopes overnight. Supernatants were then collected and assessed for IL-2 production by ELISA.

HLA-DR2 transgenic mice = assay: Tolerisation of FVIII-specific responses in DR2+ mice by pre-treatment with peptide; assay type: in vivo; conditions: 3x i.p. 100 μg peptide prior to priming with rhFVIII/CFA, vs PBS, FIG. 6
Experimental: HLA-DR2 transgenic mice were treated with either of the two soluble peptides, or PBS as a control, prior to immunisation with factor VIII in adjuvant. Draining lymph nodes were isolated and the cells restimulated in vitro with factor VIII protein in order to assess the immune status of the mice.
HLA-DR2+ murine MHC class II null mice were treated 3 times with 100 μg of DNIMV (SEQ ID NO:72), PRCLT (SEQ ID NO:70) or PPIIA (SEQ ID NO:65) dissolved in PBS, or the equivalent volume of PBS alone. Peptides were administered intraperitoneally, with 3-4 days between each dose. Following the final administration, mice were primed with rhFVIII emulsified in complete Freunds adjuvant as for (i). 10 days later, draining lymph nodes were recovered and lymphocytes subsequently cultured in vitro with rhFVIII, or each of the tolerising peptides as well as control antigens, for 72 hours before the addition of tritiated thymidine as for (i).

[2] = test system: HLA-DR2 restricted cells from factor VIII immunised mice; assay: Recall responses (proliferation) of lymph node cells from FVIII+DR2+ mice primed with rhFVIII/CFA to FVIII peptides; assay type: cell-based; conditions: FVIII+DR2+ mice immunised with human factor VIII in adjuvant; LNC restimulated in vitro with peptide; FIG. 1
[3] = test system: lymph node cells from FVIII-DR2+ mice; assay: Recall responses of lymph node cells from FVIII-DR2+ mice primed with rhFVIII/CFA to the peptide panel; assay type: cell-based; conditions: FVIII-DR2+ animals immunised with factor VIII in adjuvant; FIG. 3
Excerpt: HLA-DR2 transgenic mice were crossed with factor VIII deficient mice to create a model of haemophilia expressing the human HLA class II MHC molecule.
These FVIII-DR2+ animals were immunised with factor VIII in adjuvant. Draining lymph nodes were isolated and tested for their response to the peptide panel.
The same method was followed as for (i), except the mice were FVIII-deficient, HLA-DR2+ and murine MHC class II null.

T-cell hybridomas [4] = assay: FVIII peptide specificity of T cell hybridomas generated from FVIII-/- HLA-DR2+ mice (IL-2 production); assay type: cell-based; conditions: of 19 hybridomas specific for factor VIII; factor VIII deficient HLA-DR2 mice
Excerpt: Factor VIII deficient mice expressing HLA-DR2 were immunised with factor VIII in adjuvant. Spleen cells from the immunised mice were restimulated in vitro with factor VIII and the resulting lymphoblasts were fused with BW5147, as described above. T-cell hybridomas were screened for their response to the 12 predicted peptides. Yet again, the majority of hybridomas responded to peptides DNIMV (SEQ ID NO:72) and PRCLT (SEQ ID NO:70). Of 19 hybridomas specific for factor VIII, 10 responded to DNIMV (SEQ ID NO:72), 6 to PRCLT (SEQ ID NO:70), 1 to PPIIA (SEQ ID NO:65), 1 to SLYIS (SEQ ID NO:64) and 1 to DTLLI (SEQ ID NO:69).
(§1) HLA-DR2+ murine MHC class II null mice were immunised as above. On day 10 draining lymph nodes were removed and lymphocytes cultured at 2.5×10^6 cells/ml, 1 ml/well in 24 well plates in the presence of 20 μg/ml rhFVIII for 3 days. Following this stimulation, lymphocytes were recovered, washed and fused with TCRα^−β^− BW fusion partner cells at a ratio of 4 BW cells to 1 lymphocyte, using polyethylene glycol as described by Nelson et al (1980) PNAS 77(5):2866. Fused cells were carefully washed and then plated out in flat bottomed 96 well plates for 2 days before the addition of HAT medium to select for T cell hybridomas. Cells were monitored for growth and approximately 10 days after fusions were performed, individual clones were selected and transferred to 24 well plates in HAT medium. Clones were maintained in HAT medium for at least 2 weeks before being weaned into HT medium and then complete medium. Clones were tested for antigenic specificity by culturing 100 μl of hybridoma cells with 5×10^4 Mgar cells in the presence and absence of 20 μg/ml rhFVIII overnight. Supernatants were then collected and assessed for IL-2 production by ELISA, with clones producing IL-2 in response to rhFVIII being considered positive for FVIII-specificity. To investigate the repertoire of predicted FVIII peptides FVIII-specific clones were again tested for IL-2 production, following overnight incubation with 20 μg/ml of each of the 12 peptides.
The same method was followed as for (ii), except the mice were FVIII-deficient and HLA-DR2+.

T-cell hybridomas [5] = assay: FVIII peptide specificity of T cell hybridomas generated from DR2+ mice (IL-2 production); assay type: cell-based; conditions: for Number of hybridomas responding to peptide: of the 27 hybridomas screened, HLA-DR2 mice, 20 μg/ml peptide, IL-2
Excerpt: HLA-DR2 mice were first immunised with factor VIII in adjuvant. Spleen cells from immune mice were restimulated in vitro with factor VIII and the resulting lymphoblasts were fused with the BW5147 thymoma using polyethylene glycol.
T-cell hybridomas were selected in HAT medium and the hybridomas cloned and tested for their response to factor VIII. The hybridomas were then screened for their response to the 12 predicted peptides.
as §1

Row | Sequence | Presentation by live and fixed Mgar cells [1] | Immune response to factor VIII after peptide pre-treatment (LNC recall response) (HLA-DR2 transgenic mice) | Response of lymph node cells to peptide (LNC proliferation) [2] | Response of lymph node cells to peptide [3] | Number of hybridomas responding to peptide (T-cell hybridomas [4]) | Number of hybridomas responding to peptide (T-cell hybridomas [5]) | Quality of hybridoma response to peptide (T-cell hybridomas [5]; HLA-DR2 mice hybridomas)
1 | DNIMVTFRNQASRPY | presented by both live and fixed Mgar cells | substantial suppression of the immune response to factor VIII | respond strongly | responded well | 10 | 11 | –
2 | DTLLIIFKNQASRPY | – | – | – | – | 1 | – | –
3 | GTLMVFFGNVDSSGI [FVIII first AA 2140] | – | – | – | weak response | – | – | –
4 | PPIIARYIRLHPTHY [FVIII first AA 2161] | – | – | responses | – | 1 | 3 | weaker and less specific
5 | PRCLTRYYSSFVNME | presented by both live and fixed Mgar cells | substantial suppression of the immune response to factor VIII | responses | responded well | 6 | 3 | –
6 | RYLRIHPQSWVHQIA [FVIII first AA 2322] | – | – | – | significant response | – | – | –
7 | SLYISQFIIMYSLDG [FVIII first AA 2114] | – | – | – | – | 1 | – | –
